Bounds are passed on as bounds.

As a reminder, the IC50 is the concentration that inhibits the measured activity by half. A high value points to lower potency.

Assay [1] has as its target ErbB2 with Exon 20 YVMA insertion (HER2-YVMA) (Homo sapiens (Human), UniProt P04626, INS775YVMA). The experiment in a line: Cellular Phosphorylation Assay, Assay 4 (constitutive ErbB2 phosphorylation, NIH 3T3 cells). The format is cell-based.
For another assay, the target named is EGFR (Homo sapiens (Human), UniProt P00533). In words: ErbB Enzyme Assay (HTRF KinEASE-TK), Assay 3. The format is biochemical. A general note: TR-FRET usually uses a lanthanide donor and a delayed reading to cut background.
Sequence of EGFR (P00533 25-1210): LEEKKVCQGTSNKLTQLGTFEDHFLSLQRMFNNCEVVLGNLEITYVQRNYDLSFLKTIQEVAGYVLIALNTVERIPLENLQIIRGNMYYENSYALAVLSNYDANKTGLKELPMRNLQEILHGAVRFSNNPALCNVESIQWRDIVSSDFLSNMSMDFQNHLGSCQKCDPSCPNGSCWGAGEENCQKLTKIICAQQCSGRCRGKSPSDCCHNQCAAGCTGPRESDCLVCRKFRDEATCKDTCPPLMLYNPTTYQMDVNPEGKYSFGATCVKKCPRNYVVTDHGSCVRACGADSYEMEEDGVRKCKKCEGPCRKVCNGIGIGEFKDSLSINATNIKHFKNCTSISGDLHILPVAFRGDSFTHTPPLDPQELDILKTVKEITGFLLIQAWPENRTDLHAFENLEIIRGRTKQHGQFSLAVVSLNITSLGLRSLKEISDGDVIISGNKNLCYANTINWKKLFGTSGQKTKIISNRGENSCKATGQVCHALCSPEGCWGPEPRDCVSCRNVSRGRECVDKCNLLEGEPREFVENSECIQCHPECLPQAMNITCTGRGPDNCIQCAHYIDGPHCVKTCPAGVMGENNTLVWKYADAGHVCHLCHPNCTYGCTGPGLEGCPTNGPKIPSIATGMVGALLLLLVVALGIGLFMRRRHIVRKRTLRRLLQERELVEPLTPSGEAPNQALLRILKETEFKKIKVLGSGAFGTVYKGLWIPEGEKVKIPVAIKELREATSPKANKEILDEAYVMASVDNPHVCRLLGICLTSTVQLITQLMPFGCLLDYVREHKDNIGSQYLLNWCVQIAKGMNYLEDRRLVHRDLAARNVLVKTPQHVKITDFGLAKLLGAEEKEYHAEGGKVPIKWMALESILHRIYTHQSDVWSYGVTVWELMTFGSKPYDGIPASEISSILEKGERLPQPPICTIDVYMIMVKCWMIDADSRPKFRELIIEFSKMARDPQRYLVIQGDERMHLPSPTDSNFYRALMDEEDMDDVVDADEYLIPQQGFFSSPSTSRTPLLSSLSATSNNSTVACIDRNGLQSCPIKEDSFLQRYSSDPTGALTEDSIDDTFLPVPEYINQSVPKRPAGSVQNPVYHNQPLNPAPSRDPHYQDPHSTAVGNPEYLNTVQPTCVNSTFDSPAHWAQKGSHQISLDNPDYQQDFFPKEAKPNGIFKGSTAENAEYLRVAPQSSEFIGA
The target in a further assay is EGFR wild type (EGFR WT) (Homo sapiens (Human), UniProt P00533). The experiment in a line: Cellular Phosphorylation Assay, Assay 5 (EGF-stimulated EGFR phosphorylation, NIH 3T3 cells). The format is cell-based.
Sequence of EGFR wild type (EGFR WT) (P00533 25-1210): as above
In the next assay the target is ErbB2 WT (Homo sapiens (Human), UniProt P04626). In words: ErbB Enzyme Assay (HTRF KinEASE-TK), Assay 2. The format is biochemical.
Sequence of ErbB2 WT (P04626 23-1255): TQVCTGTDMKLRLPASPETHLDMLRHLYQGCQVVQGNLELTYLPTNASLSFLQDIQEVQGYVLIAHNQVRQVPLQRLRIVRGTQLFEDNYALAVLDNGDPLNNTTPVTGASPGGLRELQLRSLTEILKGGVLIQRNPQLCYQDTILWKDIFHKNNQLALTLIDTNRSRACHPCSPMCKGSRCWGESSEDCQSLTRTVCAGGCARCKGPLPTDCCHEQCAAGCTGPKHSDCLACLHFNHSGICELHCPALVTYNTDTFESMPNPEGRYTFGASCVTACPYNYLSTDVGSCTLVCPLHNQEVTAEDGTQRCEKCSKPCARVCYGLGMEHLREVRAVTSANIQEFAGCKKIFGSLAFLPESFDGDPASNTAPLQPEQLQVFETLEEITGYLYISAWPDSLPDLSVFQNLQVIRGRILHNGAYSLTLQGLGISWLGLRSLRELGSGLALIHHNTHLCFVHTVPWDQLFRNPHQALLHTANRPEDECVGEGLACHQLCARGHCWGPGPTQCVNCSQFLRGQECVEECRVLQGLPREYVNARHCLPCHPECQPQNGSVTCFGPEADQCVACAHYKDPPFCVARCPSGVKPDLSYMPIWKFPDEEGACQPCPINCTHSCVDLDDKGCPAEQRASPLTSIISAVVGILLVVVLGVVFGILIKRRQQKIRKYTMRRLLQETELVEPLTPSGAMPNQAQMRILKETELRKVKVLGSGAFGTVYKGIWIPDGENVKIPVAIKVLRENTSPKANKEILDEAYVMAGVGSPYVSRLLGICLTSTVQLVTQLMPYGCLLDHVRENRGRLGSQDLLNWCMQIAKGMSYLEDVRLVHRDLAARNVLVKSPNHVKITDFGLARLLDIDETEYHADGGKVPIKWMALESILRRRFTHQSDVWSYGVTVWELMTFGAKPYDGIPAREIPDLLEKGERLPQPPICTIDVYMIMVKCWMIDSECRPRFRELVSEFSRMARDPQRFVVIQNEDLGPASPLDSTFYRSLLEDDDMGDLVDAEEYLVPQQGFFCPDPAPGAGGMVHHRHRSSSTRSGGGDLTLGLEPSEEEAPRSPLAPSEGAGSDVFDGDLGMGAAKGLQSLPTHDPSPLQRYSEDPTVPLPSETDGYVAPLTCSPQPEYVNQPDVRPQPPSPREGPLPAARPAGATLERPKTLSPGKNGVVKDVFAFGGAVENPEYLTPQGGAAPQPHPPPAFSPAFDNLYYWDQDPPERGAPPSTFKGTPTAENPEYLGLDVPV
Where [2] appears, read: cellular ErbB2 YVMA phosphorylation.
Where [3] appears, read: cellular EGFR WT phosphorylation, EGF-stimulated.
Where [4] appears, read: EGF-stimulated EGFR WT phosphorylation.

Sequence of ErbB2 with Exon 20 YVMA insertion (HER2-YVMA) (P04626 other isoform, or with tags, fused parts or gaps ins YVMA behind 775): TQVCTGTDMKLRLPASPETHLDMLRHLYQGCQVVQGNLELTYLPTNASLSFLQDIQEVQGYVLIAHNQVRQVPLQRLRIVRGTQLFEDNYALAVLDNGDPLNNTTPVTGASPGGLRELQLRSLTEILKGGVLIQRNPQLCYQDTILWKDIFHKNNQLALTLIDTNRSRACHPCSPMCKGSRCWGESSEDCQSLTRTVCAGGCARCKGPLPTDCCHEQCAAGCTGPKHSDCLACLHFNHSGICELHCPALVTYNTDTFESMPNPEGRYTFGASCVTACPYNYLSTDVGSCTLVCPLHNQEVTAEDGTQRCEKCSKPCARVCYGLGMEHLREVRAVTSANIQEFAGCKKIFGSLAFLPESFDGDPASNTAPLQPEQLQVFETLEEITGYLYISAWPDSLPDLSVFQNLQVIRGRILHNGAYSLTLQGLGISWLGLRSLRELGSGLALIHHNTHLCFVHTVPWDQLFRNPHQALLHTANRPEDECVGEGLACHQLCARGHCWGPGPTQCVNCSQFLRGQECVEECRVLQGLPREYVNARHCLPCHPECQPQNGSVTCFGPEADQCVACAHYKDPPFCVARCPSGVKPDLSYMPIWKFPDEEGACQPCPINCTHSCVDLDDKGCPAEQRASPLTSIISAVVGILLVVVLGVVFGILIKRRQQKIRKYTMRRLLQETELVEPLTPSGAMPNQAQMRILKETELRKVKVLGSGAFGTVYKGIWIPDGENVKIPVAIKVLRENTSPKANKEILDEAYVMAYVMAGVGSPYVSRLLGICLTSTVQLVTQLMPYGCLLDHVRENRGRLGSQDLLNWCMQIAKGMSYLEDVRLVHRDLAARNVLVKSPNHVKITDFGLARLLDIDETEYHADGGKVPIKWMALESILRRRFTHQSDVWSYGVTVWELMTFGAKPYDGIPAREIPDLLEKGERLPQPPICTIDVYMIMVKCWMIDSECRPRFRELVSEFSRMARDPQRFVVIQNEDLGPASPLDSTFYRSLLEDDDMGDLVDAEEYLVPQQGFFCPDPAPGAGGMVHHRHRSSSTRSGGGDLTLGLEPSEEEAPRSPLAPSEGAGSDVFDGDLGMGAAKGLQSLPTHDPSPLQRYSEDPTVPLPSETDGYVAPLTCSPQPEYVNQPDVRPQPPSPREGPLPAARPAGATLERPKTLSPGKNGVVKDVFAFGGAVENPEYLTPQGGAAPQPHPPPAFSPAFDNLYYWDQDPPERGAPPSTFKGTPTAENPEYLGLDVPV

For the molecule `C=CC(=O)N1C[C@H]2CC[C@H](c3ccc4ncnc(Nc5ccc(Oc6ccn7ncnc7c6)c(C)c5)c4n3)[C@H]2C1` [Example 409], the half-maximal inhibitory concentration (IC50) in assay [1] (setting [2]) is 34.6 nM; against EGFR (EGFR enzyme assay), 1970 nM; at EGFR wild type (EGFR WT) (setting [3]) it was ≥ 5000 nM; against ErbB2 WT (ErbB2 WT enzyme assay), 43.1 nM.
`C=C(F)C(=O)N1CCN(c2ccc3ncnc(Nc4ccc(Oc5ccn6ncnc6c5)c(C)c4F)c3n2)CC1` [Example 185, 1-(4-(4-((4-([1,2,4]triazolo[1,5-a]pyridin-7-yloxy)-2-fluoro-3-methylphenyl)amino)pyrido[3,2-d]pyrimidin-6-yl)piperazin-1-yl)-2-fluoroprop-2-en-1-one]: the half-inhibitory concentration (IC50) in assay [1] (ErbB2 YVMA phosphorylation) is 315 nM; against EGFR (EGFR enzyme), ≥ 10000 nM; on EGFR wild type (EGFR WT) (setting [4]), ≥ 5000 nM; against ErbB2 WT (ErbB2 WT enzyme), 128 nM.
With `C=CC(=O)N1C[C@@H]2C[C@H]1CC[C@@H]2c1ccc2ncnc(Nc3cc(C)c(Oc4ccn5ncnc5c4)cc3F)c2n1` [Example 380], the IC50 in assay [1] (setting [2]) is 125 nM; against EGFR (EGFR enzyme assay), 5680 nM; against EGFR wild type (EGFR WT) (setting [3]), ≥ 5000 nM; against ErbB2 WT (ErbB2 WT enzyme assay) it was 68.1 nM.
For `C=CC(=O)N1CCCN(c2ccc3ncnc(Nc4ccc(Oc5ccn6ncnc6c5)c(C)c4F)c3n2)CC1(C)C` [Example 259] the same measures were 78.5 nM, ≥ 10000 nM, 3430 nM and 20.4 nM.
As to `C=CC(=O)N1CCC(Sc2ccc3ncnc(Nc4ccc(Oc5ccn6ncnc6c5)c(C)c4F)c3n2)CC1` [Example 60, 1-(4-((4-((4-([1,2,4]triazolo[1,5-a]pyridin-7-yloxy)-2-fluoro-3-methylphenyl)amino)pyrido[3,2-d]pyrimidin-6-yl)thio)piperidin-1-yl)prop-2-en-1-one], the IC50 is 49.4 nM in assay [1] (ErbB2 YVMA phosphorylation), ≥ 10000 nM against EGFR (EGFR enzyme), 1210 nM against EGFR wild type (EGFR WT) (setting [4]) and 54.3 nM against ErbB2 WT (ErbB2 WT enzyme).
Regarding `C=CC(=O)N1CCN(c2ccc3ncnc(Nc4ccc(Oc5ccn6ncnc6c5)c(C)c4F)c3n2)CC12CC2` [Example 338], the concentration for half-maximal inhibition (IC50) came out at 4.9 nM in assay [1] (setting [2]), 108 nM on EGFR (EGFR enzyme assay), 68.9 nM against EGFR wild type (EGFR WT) (setting [3]) and 7 nM against ErbB2 WT (ErbB2 WT enzyme assay).
With `CC#CC(=O)N1CCN(c2ccc3ncnc(Nc4ccc(Oc5ccn6ncnc6c5)c(C)c4F)c3n2)C[C@@H]1C(F)F` (racemic) [Example 168, rac-1-(4-(4-((4-([1,2,4]triazolo[1,5-a]pyridin-7-yloxy)-2-fluoro-3-methylphenyl)amino)pyrido[3,2-d]pyrimidin-6-yl)-2-(difluoromethyl)piperazin-1-yl)but-2-yn-1-one], the IC50 in assay [1] (ErbB2 YVMA phosphorylation) stood at 16.5 nM; against EGFR (EGFR enzyme), 1790 nM; on EGFR wild type (EGFR WT) (setting [4]), 356 nM; at ErbB2 WT (ErbB2 WT enzyme), 74.3 nM.
Consider `C=CC(=O)N1C[C@H]2CC[C@@H]1C[C@H]2c1ccc2ncnc(Nc3cc(C)c(Oc4cnc5c(c4)ncn5C)cc3F)c2n1` [Example 421], for which the IC50 in assay [1] (setting [2]) is 94.3 nM; against EGFR (EGFR enzyme assay), ≥ 10000 nM; against EGFR wild type (EGFR WT) (setting [3]), ≥ 5000 nM; against ErbB2 WT (ErbB2 WT enzyme assay) it was 217 nM.
In the case of `C=CC(=O)N1CC[C@H](c2ccc3ncnc(Nc4ccc(Oc5ccn6ncnc6c5)c(C)c4F)c3n2)CC12CC2` (single isomer, unassigned) [Example 174], the IC50 came out at 7.9 nM in assay [1] (ErbB2 YVMA phosphorylation), 736 nM at EGFR (EGFR enzyme), 270 nM against EGFR wild type (EGFR WT) (setting [4]) and 23.8 nM against ErbB2 WT (ErbB2 WT enzyme).
The like results for `C=CC(=O)N1C[C@H]2C[C@@H]1CN(c1ccc3ncnc(Nc4cc(C)c(Oc5ccc6c(c5)ncn6C)cc4F)c3n1)C2` [Example 119, 1-((1S,5R)-3-(4-((2-fluoro-5-methyl-4-((1-methyl-1H-benzo[d]imidazol-5-yl)oxy)phenyl)amino)pyrido[3,2-d]pyrimidin-6-yl)-3,6-diazabicyclo[3.2.1]octan-6-yl)prop-2-en-1-one] were, in that order, 9.4 nM, ≥ 10000 nM, ≥ 5000 nM and 60.4 nM.
For `C=CC(=O)N1CCN(c2ccc3ncnc(Nc4ccc(Oc5ccn6ncnc6c5)c(Cl)c4F)c3n2)CC1(C)C` [Example 87, 1-(4-(4-((4-([1,2,4]triazolo[1,5-a]pyridin-7-yloxy)-3-chloro-2-fluorophenyl)amino)pyrido[3,2-d]pyrimidin-6-yl)-2,2-dimethylpiperazin-1-yl)prop-2-en-1-one] the same measures were 8.8 nM, 463 nM, 178 nM and 7.5 nM.
With `C=CC(=O)N1C[C@@H]2C[C@H](c3ccc4ncnc(Nc5ccc(Oc6ccc7c(c6)ncn7C)c(C)c5F)c4n3)C[C@H]1C2` [Example 389], the IC50 in assay [1] (setting [2]) worked out at 31.1 nM; against EGFR (EGFR enzyme assay) it was 277 nM; against EGFR wild type (EGFR WT) (setting [3]), 685 nM; at ErbB2 WT (ErbB2 WT enzyme assay), 20.4 nM.
Take `C=CC(=O)N1CCN(c2ccc3ncnc(Nc4ccc(Oc5ccn6ncnc6c5)c(C)c4F)c3n2)C[C@@H]1C(C)(C)C` [Example 295]: the concentration for half-maximal inhibition (IC50) in assay [1] (setting [2]) is 79.3 nM; against EGFR (EGFR enzyme assay), 1030 nM; against EGFR wild type (EGFR WT) (setting [3]) it was ≥ 5000 nM; at ErbB2 WT (ErbB2 WT enzyme assay), 153 nM.
Regarding `C=CC(=O)N1CCC(Oc2ccc3ncnc(Nc4ccc(Oc5cnn6c(C)cnc6c5)c(Cl)c4F)c3n2)CC1` [Example 53, 1-(4-((4-((3-chloro-2-fluoro-4-((3-methylimidazo[1,2-b]pyridazin-7-yl)oxy)phenyl)amino)pyrido[3,2-d]pyrimidin-6-yl)oxy)piperidin-1-yl)prop-2-en-1-one], the IC50 was determined as 41.1 nM in assay [1] (ErbB2 YVMA phosphorylation), 1450 nM at EGFR (EGFR enzyme), 1240 nM against EGFR wild type (EGFR WT) (setting [4]) and 99.1 nM against ErbB2 WT (ErbB2 WT enzyme).
Take `C=CC(=O)N1CCCC(c2ccc3ncnc(Nc4cc(C)c(Oc5ccn6ncnc6c5)cc4F)c3n2)C1` (stereo not drawn) [Example 370]: the half-maximal inhibitory concentration (IC50) in assay [1] (setting [2]) came out at 47.3 nM; against EGFR (EGFR enzyme assay), 1990 nM; against EGFR wild type (EGFR WT) (setting [3]) it was 3170 nM; at ErbB2 WT (ErbB2 WT enzyme assay), 56 nM.
`C=CC(=O)N1CCN(c2ccc3ncnc(Nc4ccc(Oc5ccc6c(c5)ncn6C)c(C)c4F)c3n2)C[C@@H]1C1CC1` [Example 162, (S)-1-(2-cyclopropyl-4-(4-((2-fluoro-3-methyl-4-((1-methyl-1H-benzo[d]imidazol-5-yl)oxy)phenyl)amino)pyrido[3,2-d]pyrimidin-6-yl)piperazin-1-yl)prop-2-en-1-one]: the half-maximal inhibitory concentration (IC50) in assay [1] (ErbB2 YVMA phosphorylation) is 25.7 nM; against EGFR (EGFR enzyme) it was ≥ 10000 nM; on EGFR wild type (EGFR WT) (setting [4]), ≥ 5000 nM; at ErbB2 WT (ErbB2 WT enzyme) it was 342 nM.
Turning to `C=CC(=O)N1C[C@H]2CC[C@@H]1CN2c1ccc2ncnc(Nc3cc(C)c(Oc4cnc5c(c4)ncn5C)cc3F)c2n1` [Example 367], the IC50 in assay [1] (setting [2]) is 70.4 nM; against EGFR (EGFR enzyme assay) it was ≥ 10000 nM; against EGFR wild type (EGFR WT) (setting [3]), ≥ 5000 nM; against ErbB2 WT (ErbB2 WT enzyme assay), 2330 nM.
For `C=CC(=O)N1CCN(c2ccc3ncnc(Nc4cc(Cl)c(Oc5ccn6ncnc6c5)cc4F)c3n2)C[C@H]1C(C)(C)C` [Example 309] the same measures were 16.1 nM, ≥ 10000 nM, ≥ 5000 nM and 10000 nM.
Turning to `C=CC(=O)N1CCN(c2nc3c(Nc4ccc(Oc5ccn6ncnc6c5)c(C)c4F)ncnc3cc2Cl)C[C@@H]1C` [Example 149, (S)-1-(4-(4-((4-([1,2,4]triazolo[1,5-a]pyridin-7-yloxy)-2-fluoro-3-methylphenyl)amino)-7-chloropyrido[3,2-d]pyrimidin-6-yl)-2-methylpiperazin-1-yl)prop-2-en-1-one], the IC50 in assay [1] (ErbB2 YVMA phosphorylation) is 192 nM; against EGFR (EGFR enzyme), 6700 nM; at EGFR wild type (EGFR WT) (setting [4]) it was ≥ 5000 nM; against ErbB2 WT (ErbB2 WT enzyme), 323 nM.
As for `C=CC(=O)N1CC[C@H](c2ccc3ncnc(Nc4ccc(Oc5cnc6c(c5)ncn6C)c(Cl)c4)c3n2)CC1(C)C` (racemic) [Example 272], the IC50 in assay [1] (setting [2]) was 76.9 nM; against EGFR (EGFR enzyme assay) it was ≥ 10000 nM; against EGFR wild type (EGFR WT) (setting [3]) it was ≥ 5000 nM; against ErbB2 WT (ErbB2 WT enzyme assay), 124 nM.
For `C=CC(=O)N1CCN(c2ccc3ncnc(Nc4ccc(Oc5ccn6ncnc6c5)c(C)c4F)c3n2)C[C@@H]1C(C)C` [Example 266] the same measures were 91.2 nM, ≥ 10000 nM, ≥ 5000 nM and 178 nM.
For `C=CC(=O)N1CCCN(c2ccc3ncnc(Nc4cc(C)c(Oc5ccn6ncnc6c5)cc4F)c3n2)CC1(C)C` [Example 260] the same measures were 114 nM, 4510 nM, ≥ 5000 nM and 41.5 nM.
For `C=CC(=O)N1C2CC1CN(c1ccc3ncnc(Nc4ccc(Oc5cnc6c(c5)ncn6C)c(C)c4F)c3n1)C2` [Example 438] the same measures were 9.8 nM, ≥ 10000 nM, ≥ 5000 nM and 352 nM.
Take `C=CC(=O)N1C[C@H]2C[C@@H]1[C@H](c1ccc3ncnc(Nc4ccc(Oc5ccn6ncnc6c5)c(C)c4F)c3n1)C2` [Example 372]: the IC50 was determined as 52.7 nM in assay [1] (setting [2]), 1130 nM against EGFR (EGFR enzyme assay), 4080 nM against EGFR wild type (EGFR WT) (setting [3]) and 19 nM against ErbB2 WT (ErbB2 WT enzyme assay).
Turning to `C=CC(=O)N(C)[C@@H]1CCN(c2ccc3ncnc(Nc4cc(C)c(Oc5ccn6ncnc6c5)cc4F)c3n2)C1` [Example 350], the IC50 was 96 nM in assay [1] (setting [2]), ≥ 10000 nM on EGFR (EGFR enzyme assay), ≥ 5000 nM against EGFR wild type (EGFR WT) (setting [3]) and 69.4 nM against ErbB2 WT (ErbB2 WT enzyme assay).
As to `C=CC(=O)N1CCN(c2ccc3ncnc(Nc4cnc(Oc5ccn6ncnc6c5)c(C)c4)c3n2)CC1(C)C` [Example 449], the 50% inhibitory concentration (IC50) in assay [1] (setting [2]) is 56.2 nM; on EGFR (EGFR enzyme assay), 7510 nM; against EGFR wild type (EGFR WT) (setting [3]), ≥ 5000 nM; against ErbB2 WT (ErbB2 WT enzyme assay), 91.9 nM.
For `C=CC(=O)N1C[C@H]2C[C@@H]1[C@H](c1ccc3ncnc(Nc4ccc(Oc5cnc6c(c5)ncn6C)c(C)c4F)c3n1)C2` [Example 418] the same measures were 33.6 nM, 5600 nM, ≥ 5000 nM and 119 nM.

Source of the values: US12447153B2, “HER2 mutation inhibitors” (Array BioPharma Inc., priority 2021, dated 2025).
